Laboratory results from EP0314302A2, “Herbicidal o-carbomethoxy-sulfonylureas” (E.I. DU PONT DE NEMOURS AND COMPANY, priority 1987, dated 1989).

Assays:
Sugarcane = assay: Test 5 sugarcane injury and weed control, postemergence; format: in vivo, Saccharum spp.; conditions: scale 0-100
Experimental: (§1) Sugarcane (Saccharum spp.) cuttings which had been pre-sprouted were planted in 15-cm plastic pots. Narrowleaf panicum (Panicum maximum), large crabgrass (Digitaria sanguinalis), guineagrass (P. maximum) and itchgrass (Rottboellia exaltata) were seeded in individual 15-cm plastic pots.
(§2) The pots were treated postemergence when the plants had 3 to 4 leaves with 2 to 3 tillers with Compound I formulated in a non-phytotoxic carrier made up of acetone-humectant-water-surfactant (22:1:1:0.05 v/v). The degree of crop injury and weed control was visually rated 27 days after treatment (DAT). Plant injury ratings are based on the scale of 0 to 100 where 0 = no effect, 20 = minimal injury and 100 = complete control.

Large Crabgrass [1] = assay: as above; format: in vivo, Digitaria sanguinalis; conditions: scale 0-100
Experimental: as §1, §2

Kentucky fescue = assay: Test 8 postemergence safety to pineapple, turfs and weed control; format: in vivo; conditions: scale 0-100
From the text: (§3) The object of this test was to evaluate the compound of this invention for postemergence safety to pineapple, turfs and weed control. Climax timothy, Kentucky bluegrass, forage fescue, Kentucky fescue, bermudagrass, bentgrass, annual bluegrass, bahiagrass, purple nutsedge, yellow nutsedge, large crabgrass, perennial ryegrass, annual ryegrass, galium and pineapple were sprayed postemergence with the compound in a non-phytotoxic solvent. Plants were visually rated 36 days after treatment (DAT). Injury ratings were based on the scale of 0 to 100 where 0 = no effect, 20 = minimal effect and 100 = complete control.

Large crabgrass [2] = assay: as above; format: in vivo; conditions: scale 0-100
From the text: as §3

Bermudagrass = assay: as above; format: in vivo; conditions: scale 0-100
From the text: as §3

Climax timothy = assay: as above; format: in vivo; conditions: scale 0-100
From the text: as §3

Perennial ryegrass = assay: as above; format: in vivo; conditions: scale 0-100
From the text: as §3

Kentucky bluegrass = assay: as above; format: in vivo; conditions: scale 0-100
From the text: as §3

Galium = assay: as above; format: in vivo; conditions: scale 0-100
From the text: as §3

Annual ryegrass = assay: as above; format: in vivo; conditions: scale 0-100
From the text: as §3

Forage fescue = assay: as above; format: in vivo; conditions: scale 0-100
From the text: as §3

Yellow nutsedge = assay: as above; format: in vivo; conditions: scale 0-100
From the text: as §3

Purple nutsedge = assay: as above; format: in vivo; conditions: scale 0-100
From the text: as §3

Bentgrass = assay: as above; format: in vivo; conditions: scale 0-100
From the text: as §3

Pineapple = assay: as above; format: in vivo; conditions: scale 0-100
From the text: as §3

Bahiagrass = assay: as above; format: in vivo; conditions: scale 0-100
From the text: as §3

Annual bluegrass = assay: as above; format: in vivo; conditions: scale 0-100
From the text: as §3

Dandelion = assay: Test 7 postemergence; format: in vivo, Taraxacum spp; conditions: scale 0-100
Experimental: Individual 11.4-cm plastic pots filled with planting medium were seeded with rape, wild radish (Raphanus raphanistruna). tansy mustard (Descurainia pinnata), ball mustard (Neslia paniculata), black mustard (Brassica nigra), yellow mustard, brown mustard, lentils, safflower, flax, sunflower, peanut, vetch, alfalfa, field bean, pea, violet (Viola spp), Kochia (Kochia spp), Russian thistle (Salsola spp), Matricaria spp, groundsel (Senecio spp), shepherdspurse (Capsella bursa-pastoris), nightshade (Solanum spp), sowthistle (Sonchus spp), sugar beet, wheat, "Bonanza" barley and "Morex" barley, Kentucky bluegrass (Poa pratensis), red clover (Trifolium pratense), dandelion (Taraxacum spp) and buckhorn plantain (Plantago lanceolata).
Plants were treated postemergence with the compound formulated with a non-phytotoxic carrier. Plants were visually rated 18 days after treatment (DAT). Response ratings were based on the scale of 0 to 100 where 0 = no effect, 20 = minimal injury and 100 = complete control.

Sandbur = assay: Test 11 citrus pots, postemergence to the weeds; format: in vivo, Cenchrus echinatus; conditions: Postemergence 32 g/ha, 0.25% X-77 surfactant, scale 0-100
Experimental: (§4) Budded citrus seedlings were planted in 30-liter plastic pots which were also seeded with sandbur, guineagrass, narrowleaf panicum, common ragweed, yellow nutsedge, purple nutsedge and bindweed. Compound I was applied preemergence and postemergence to the weeds. Treatments were sprayed to simulate the trunk-to-trunk herbicide application method used in some citrus groves. The compound was also applied postemergence to weeds grown in windowsill flats. The flats were filled with planting medium and seeded with morningglory (Ipomoea spp.). purple nutsedge (Cyperus rotundus), pigweed (Amaranthus spp.), bindweed (Convolvulus spp.), narrowleaf panicum (Panicum maximum), common ragweed (Ambrosia artemisiifolia), sandbur (Cenchrus echinatus), itchgrass (Rottboellia exaltata), johnsongrass (Sorghum halepense), guineagrass (Panicum maximum), smooth crabgrass (Digitaria ischaemum), broadleaf signalgrass (Brachiaria platyphylla), bermudagrass (Cynodon dactylon), goosegrass (Eleusine indica), large crabgrass (Digitaria sanguinalis) and yellow nutsedge (Cyperus esculentus).
(§5) The compound was formulated and sprayed with 0.25% X-77 surfactant in water. Plants were visually rated 21 and 29 days after treatment and compared with appropriate controls. Injury ratings were based on the scale of 0 to 100, where 0 indicates no effect, 20 indicates minimum effect and 100 indicates complete control. […]

Bindweed = assay: Test 11 windowsill flats, postemergence; format: in vivo, Convolvulus spp.; conditions: Postemergence 32 g/ha, 0.25% X-77 surfactant, scale 0-100
Experimental: as §4, §5

Mikanis cordata = assay: Test 9 postemergence; format: in vivo, Mikania cordata; conditions: scale 0-100
Experimental: Plastic windowsill pots containing planting medium were seeded with bahiagrass, bindweed (Convolvulus spp), guinea grass (Panicum maximum), large crabgrass (Digitaria sanguinalis) and pigweed (Amaranthus spp). Individual 15-cm plastic pots contained sandbur (Cenchrus echinatus), Mikania cordata, Boston fern (Nephrolepis exalata), quackgrass (Agropyron repens), elephantgrass (Pennisetum purpureum) and sowthistle (Sonchus spp) plants.
Plants were treated postemergence with Compound I formulated in a non-phytotoxic solvent. Plants were visually rated 22 days after treatment (DAT). Injury and weed control ratings were based on the scale of 0 to 100 where 0 = no effect, 20 = minimal control and 100 = complete control.

COC(=O)c1cccnc1S(=O)(=O)NC(=O)Nc1nc(OC)cc(OC)n1 [Compound I, 2-[[(4,6-dimethoxypyrimidin-2-yl)aminocarbonyl]aminosulfonyl]-3-pyridinecarboxylic acid, methyl ester]
Plant Injury Rating 27 DAT (Sugarcane; 8 g/ha): 10 | Plant Injury Rating 27 DAT (Sugarcane; 16 g/ha): 20 | Plant Injury Rating 27 DAT (Sugarcane; 32 g/ha): 20 | Plant Injury Rating 27 DAT (Sugarcane; 64 g/ha): 30 | Plant Injury Rating 27 DAT (Large Crabgrass [1]; 8 g/ha): 30 | Plant Injury Rating 27 DAT (Large Crabgrass [1]; 16 g/ha): 60 | Plant Injury Rating 27 DAT (Large Crabgrass [1]; 32 g/ha): 80 | Plant Injury Rating 27 DAT (Large Crabgrass [1]; 64 g/ha): 100 | Plant Injury Rating 36 DAT (Kentucky fescue; 16 g/ha): 100 | Plant Injury Rating 36 DAT (Kentucky fescue; 32 g/ha): 100 | Plant Injury Rating 36 DAT (Large crabgrass [2]; 16 g/ha): 60 | Plant Injury Rating 36 DAT (Large crabgrass [2]; 32 g/ha): 80 | Plant Injury Rating 36 DAT (Bermudagrass; 16 g/ha): 0 | Plant Injury Rating 36 DAT (Bermudagrass; 32 g/ha): 0 | Plant Injury Rating 36 DAT (Climax timothy; 16 g/ha): 100 | Plant Injury Rating 36 DAT (Climax timothy; 32 g/ha): 100 | Plant Injury Rating 36 DAT (Perennial ryegrass; 16 g/ha): 100 | Plant Injury Rating 36 DAT (Perennial ryegrass; 32 g/ha): 100 | Plant Injury Rating 36 DAT (Kentucky bluegrass; 16 g/ha): 100 | Plant Injury Rating 36 DAT (Kentucky bluegrass; 32 g/ha): 100 | Plant Injury Rating 36 DAT (Galium; 16 g/ha): 100 | Plant Injury Rating 36 DAT (Galium; 32 g/ha): 100 | Plant Injury Rating 36 DAT (Annual ryegrass; 16 g/ha): 100 | Plant Injury Rating 36 DAT (Annual ryegrass; 32 g/ha): 100 | Plant Injury Rating 36 DAT (Forage fescue; 16 g/ha): 100 | Plant Injury Rating 36 DAT (Forage fescue; 32 g/ha): 100 | Plant Injury Rating 36 DAT (Yellow nutsedge; 16 g/ha): 60 | Plant Injury Rating 36 DAT (Yellow nutsedge; 32 g/ha): 100 | Plant Injury Rating 36 DAT (Purple nutsedge; 16 g/ha): 50 | Plant Injury Rating 36 DAT (Purple nutsedge; 32 g/ha): 100 | Plant Injury Rating 36 DAT (Bentgrass; 16 g/ha): 70 | Plant Injury Rating 36 DAT (Bentgrass; 32 g/ha): 100 | Plant Injury Rating 36 DAT (Pineapple; 16 g/ha): 0 | Plant Injury Rating 36 DAT (Pineapple; 32 g/ha): 0 | Plant Injury Rating 36 DAT (Bahiagrass; 16 g/ha): 70 | Plant Injury Rating 36 DAT (Bahiagrass; 32 g/ha): 100 | Plant Injury Rating 36 DAT (Annual bluegrass; 16 g/ha): 100 | Plant Injury Rating 36 DAT (Annual bluegrass; 32 g/ha): 100 | Plant Injury Rating 18 DAT (Dandelion; 16 g/ha): 100 | Plant Injury Rating 18 DAT (Dandelion; 32 g/ha): 100 | Injury ratings (Sandbur): 100 | Injury ratings (Bindweed): 100 | Plant Injury Rating 22 DAT (Mikanis cordata; 8 g/ha): 0 | Plant Injury Rating 22 DAT (Mikanis cordata; 16 g/ha): 0 | Plant Injury Rating 22 DAT (Mikanis cordata; 32 g/ha): 30
